The subject of this assay is Meloidogyne incognita. The assay is described as follows: Meloidogyne incognita test (sand, lettuce, gall formation). The format is in vivo. As to conditions: Meloidogyne incognita, 336 h, 20 ppm, after 14 days; read-out: nematicidal efficacy (formation of galls). As to the method:
Meloidogyne incognita Test [table] To produce a suitable active compound preparation, 1 part by weight of active compound is mixed with the stated amount of solvent and the concentrate is diluted to the desired concentration with water. Vessels are filled with sand, active compound solution, an egg/larvae suspension of the southern root-knot nematode (Meloidogyne incognita) and lettuce seeds. The lettuce seeds germinate and the plants develop. The galls develop on the roots. After 14 days, the nematicidal efficacy in % is determined by the formation of galls. 100% means that no galls were found; 0% means that the number of galls on the treated plants corresponds to the untreated control.

52 compounds from US10820591B2, “Substituted sulfonyl amides for controlling animal pests” (Bayer Aktiengesellschaft, priority 2016, dated 2020) can be followed below.

As for `COc1ccc(Cl)c(S(=O)(=O)NC(=O)c2cn(-c3cc(F)cc(C(F)(F)F)c3)c(C)n2)c1` [I-332], the pest or weed control at 20 ppm was determined as 100%.

Consider `Cc1nc(C(=O)NS(=O)(=O)c2c(F)cccc2NC(C)C)cn1-c1cc(Cl)cc(Cl)c1` [I-377], for which the pest or weed control at 20 ppm turned out to be 90%. As for `O=C(NS(=O)(=O)c1ccccc1)c1cn(Cc2ccc(Cl)cc2)cn1` [I-151], the pest or weed control at 20 ppm came out at 100%. For the compound `COc1cccc(S(=O)(=O)NC(=O)c2ncn(CCOC(F)(F)F)c2Cl)c1` [I-058], the pest or weed control at 20 ppm was 70%. In the case of `COc1ccccc1S(=O)(=O)NC(=O)c1ncn(-c2cccc(C(F)(F)F)c2)c1Cl` [I-435], the pest or weed control at 20 ppm is 100%. With `O=C(NS(=O)(=O)c1c(F)cccc1NC1CC1)c1cn(-c2cc(Cl)cc(Cl)c2)cn1` [I-393], the pest or weed control at 20 ppm amounted to 100%. With `O=C(NS(=O)(=O)c1ccccc1Cl)c1ncn(-c2cccc(C(F)(F)F)c2)c1Cl` [I-433], the pest or weed control at 20 ppm was 100%. To `COc1ccc(Cl)c(S(=O)(=O)NC(=O)c2ncn(-c3ccc(Cl)cc3)c2C(F)F)c1` [I-481] belongs 70%. Consider `COc1ccc(S(=O)(=O)NC(=O)c2ncn(-c3ccc(C(F)(F)F)cc3)c2Cl)cc1` [I-426], for which the pest or weed control at 20 ppm is 90%. `CCCn1cnc(C(=O)NS(=O)(=O)c2ccccc2)c1Cl` [I-038]: the pest or weed control at 20 ppm was 90%. Regarding `CCOc1ccc(Cl)c(S(=O)(=O)NC(=O)c2cn(-c3cc(Cl)cc(C(F)(F)F)c3)cn2)c1` [I-337], the pest or weed control at 20 ppm came out at 100%. Next, `Cn1nc(C(=O)NS(=O)(=O)c2cc(Cl)ccc2Cl)cc1-c1ncc(C(F)(F)F)cc1Cl` [I-136]: 100%. Next, `COc1cccc(S(=O)(=O)NC(=O)c2ncn(C3CC3C(F)(F)F)c2Cl)c1` (stereo not shown) [I-063]: 100%; `COc1ccc(F)c(S(=O)(=O)NC(=O)c2cn(-c3cc(Cl)cc(Cl)c3)cn2)c1` [I-347]: 100%; `O=C(NS(=O)(=O)c1ccccc1Cl)c1cn(-c2cc(Cl)cc(Cl)c2)c(Cl)n1` [I-444]: 100%.

`Cc1ccc(S(=O)(=O)NC(=O)c2cn(CC(F)(F)F)cn2)cc1` [I-024]: the pest or weed control at 20 ppm amounted to 90%. Regarding `Cc1nc(C(=O)NS(=O)(=O)c2c(Cl)cccc2Cl)cn1-c1cc(F)cc(F)c1` [I-323], the pest or weed control at 20 ppm is 100%. `O=C(NS(=O)(=O)c1cccc(Cl)c1)c1ncn(CCCCl)c1Cl` [I-051]: the pest or weed control at 20 ppm amounted to 90%. As to `COc1ccc(F)c(S(=O)(=O)NC(=O)c2nc(Cl)n(C3CC3C(F)(F)F)c2Cl)c1` (stereo not shown) [I-467], the pest or weed control at 20 ppm stood at 100%. Next, `Cc1ccc(C)c(S(=O)(=O)NC(=O)c2cn(-c3cc(F)cc(Cl)c3)cn2)c1` [I-342]: 90%; `COc1ccc(Cl)c(S(=O)(=O)NC(=O)c2ncn(-c3c(F)cccc3F)c2C(F)F)c1` [I-487]: 100%. To `COc1ccc(Cl)c(S(=O)(=O)NC(=O)c2cn(-c3cc(Cl)cc(Cl)c3)c(C(C)C)n2)c1` [I-403] belongs 90%. On to `Cn1nc(C(=O)NS(=O)(=O)c2cc(Cl)ccc2Cl)cc1-c1cc(F)cc(C(F)(F)F)c1` [I-140], for which the pest or weed control at 20 ppm amounted to 100%.

For the compound `O=C(NS(=O)(=O)c1c(F)cccc1F)c1cn(-c2ccc(C(F)(F)F)cc2Cl)cn1` [I-223], the pest or weed control at 20 ppm stood at 100%. In the case of `O=C(NS(=O)(=O)c1cc(Cl)ccc1Cl)c1ncn(CCC(F)(F)F)c1Cl` [I-015], the pest or weed control at 20 ppm stood at 90%. To `COc1ccc(Cl)c(S(=O)(=O)NC(=O)c2ncn(-c3cccc(Cl)c3)c2C2CC2)c1` [I-485] belongs 90%.

`CC(C)Oc1ccc(Cl)c(S(=O)(=O)NC(=O)c2ncn(C3CC3C(F)(F)F)c2Cl)c1` (stereo not shown) [I-104]: the pest or weed control at 20 ppm was 100%.

Take `Cc1nc(C(=O)NS(=O)(=O)c2ccccc2Cl)cn1Cc1ccccc1Cl` [I-163]: the pest or weed control at 20 ppm was 90%.

In the case of `COc1ccccc1S(=O)(=O)NC(=O)c1ncn(C(C)CC(F)(F)F)c1Cl` (stereo not shown) [I-075], the pest or weed control at 20 ppm came out at 70%. As for `O=C(NS(=O)(=O)c1ccccc1Cl)c1cn(-c2cc(F)cc(C(F)(F)F)c2)cn1` [I-238], the pest or weed control at 20 ppm is 90%.

Regarding `O=C(NS(=O)(=O)c1ccccc1Cl)c1cn(-c2ccccc2F)cn1` [I-229], the pest or weed control at 20 ppm is 100%. Turning to `O=C(NS(=O)(=O)c1ccccc1Cl)c1cn(-c2ccc(Cl)cc2)cn1` [I-185], the pest or weed control at 20 ppm is 100%. Next, `CC(CC(F)(F)F)n1cnc(C(=O)NS(=O)(=O)c2ccccc2)c1Cl` (stereo not shown) [I-069]: 100%; `O=C(NS(=O)(=O)c1ccccc1)c1cn(-c2ccc(Cl)cc2Cl)cn1` [I-199]: 100%. As for `O=C(NS(=O)(=O)c1ccc(Cl)cc1)c1ncn(CCOC(F)(F)F)c1Cl` [I-057], the pest or weed control at 20 ppm stood at 100%.

Turning to `CSc1cccc(Cl)c1S(=O)(=O)NC(=O)c1cn(-c2cc(Cl)cc(Cl)c2)cn1` [I-390], the pest or weed control at 20 ppm stood at 100%. In the case of `O=C(NS(=O)(=O)c1ccccc1C(F)(F)F)c1cn(-c2cc(F)cc(C(F)(F)F)c2)cn1` [I-296], the pest or weed control at 20 ppm worked out at 90%.

Turning to `O=C(NS(=O)(=O)c1ccccc1C(F)(F)F)c1cn(-c2cc(C(F)(F)F)cc(C(F)(F)F)c2)cn1` [I-294], the pest or weed control at 20 ppm amounted to 90%. In the case of `Cc1ccc(C)c(S(=O)(=O)NC(=O)c2cn(-c3cc(Cl)cc(Cl)c3)cn2)c1` [I-351], the pest or weed control at 20 ppm worked out at 100%. Turning to `CCOc1ccc(S(=O)(=O)NC(=O)c2ncn(CCC(F)(F)F)c2Cl)cc1` [I-088], the pest or weed control at 20 ppm turned out to be 90%. Next, `COc1ccc(F)c(S(=O)(=O)NC(=O)c2cn(-c3cc(F)cc(Cl)c3)cn2)c1` [I-338]: 100%; `CCCn1cnc(C(=O)NS(=O)(=O)c2ccc(OC)cc2)c1Cl` [I-039]: 100%. Take `O=C(NS(=O)(=O)c1ccccc1)c1cn(-c2cc(Cl)c(Cl)c(Cl)c2)cn1` [I-304]: the pest or weed control at 20 ppm amounted to 90%. Next, `COc1ccc(Cl)c(S(=O)(=O)NC(=O)c2nc(Br)n(-c3cc(Cl)cc(Cl)c3)c2Br)c1` [I-442]: 100%; `COc1ccc(Cl)c(S(=O)(=O)NC(=O)c2cn(-c3cc(Cl)cc(Cl)c3)c(C)n2)c1` [I-318]: 100%. As for `O=C(NS(=O)(=O)c1ccccc1Cl)c1cn(-c2cccc(Cl)c2Cl)cn1` [I-242], the pest or weed control at 20 ppm was 100%. In the case of `O=C(NS(=O)(=O)c1ccc2c(c1Cl)OC(F)(F)O2)c1ncn(CCC(F)(F)F)c1Cl` [I-030], the pest or weed control at 20 ppm amounted to 90%. To `Cc1ccccc1S(=O)(=O)NC(=O)c1nc(Cl)n(C2CC2C(F)(F)F)c1Cl` (stereo not shown) [I-462] belongs 100%; to `O=C(NS(=O)(=O)c1ccc(Cl)cc1)c1cn(-c2cc(Cl)cc(Cl)c2)cn1` [I-182], 90%; to `COc1ccc(Cl)c(S(=O)(=O)NC(=O)c2cn(-c3cc(F)cc(F)c3)cn2)c1` [I-287], 100%. `COc1ccc(Cl)cc1S(=O)(=O)NC(=O)c1nc(Cl)n(C2CC2C(F)(F)F)c1Cl` (stereo not shown) [I-464]: the pest or weed control at 20 ppm was found to be 90%. Next, `Cc1ccc(S(=O)(=O)NC(=O)c2cn(CCC(F)(F)F)cn2)cc1` [I-022]: 90%.
